Reference: patent US7550624B2, “Pharmaceutically active salts and esters of 1-dimethylamino-3-(3-methoxyphenyl)-2-methylpentan-3-ol and 3- (3-dimethylamino-1-ethyl-1-hydroxy-2-methylpropyl)-phenol and methods of using same” (Gruenenthal GmbH, priority 2002, dated 2009)
Marks after values point to notes of the source that are not given here.

Tested on: female Sprague-Dawley rats
Assay: Cystometry tests on conscious fresh rats
Type: in vivo, rat
Conditions: for effect on the bladder regulation (in words): iv, cystometric parameters
Description: Cystometry investigations were carried out on fresh female Sprague-Dawley rats according to the method of Ishizuka et. al. ((1997), Naunyn-Schmiedeberg's Arch. Pharmacol. 355: 787-793). Three days after implantation of bladder and venous catheters the animals were investigated in the conscious state while freely moving. The bladder catheter was connected to a pressure gauge and an injection pump. The animals were placed in metabolic cages that enable the volume of urine to be measured. Physiological saline solution was infused (10 ml/hour) into the emptied bladder and the bladder pressure and volume of urine were continuously recorded. After a stabilisation phase a 20-minute phase was recorded that was characterised by normal, reproducible micturition cycles. The following parameters among others were measured: • threshold pressure TP, bladder pressure immediately before micturition, • bladder capacity BC, residual volume after prior micturition plus volume of infused solution during the filling phase, • intercontraction interval ICI, i.e. the time interval between consecutive micturition.
An increase in the threshold pressure (TP) indicates an important therapeutic effect in one of the medical conditions covered by the invention. Also, the intercontraction interval (ICI) is an important parameter for measuring the physiological effectiveness of a substance in the treatment of urinary incontinence, as is the bladder capacity (BC). In this connection, on account of the widely differing causes of the symptoms of these disease patterns it is not necessary to influence positively all three parameters in order for a medicament to be effective.
After recording three reproducible micturition cycles to provide a baseline value, the test substances 1 (1.0 mg/kg), 2 (0.1; 0.3 and 0.5 mg/kg), 21 (0.5 mg/kg) and 7 (0.3 mg/kg) in a vehicle comprising 0.9% NaCl were applied intravenously and the effect on the cystometric parameters was recorded at 90 to 120 minutes. In the effect maximum the mean value of 3 micturition cycles was determined and recorded as a percentage change compared to the baseline value (Table 1).

[1] = 0.5 mg/kg iv, effect maximum, mean of 3 micturition cycles
[2] = 0.3 mg/kg iv, effect maximum, mean of 3 micturition cycles

CC[C@@](O)(c1cccc(OC)c1)[C@@H](C)CN(C)C.Cl [Compound 21, (−)-(2S,3S)-1-dimethylamino-3-(3-methoxyphenyl)-2-methylpentan-3-ol, hydrochloride]
BC Bladder Capacity (change compared to the baseline value) [1]: +3%** | TP Threshold Pressure (change compared to the baseline value) [1]: −1.1%** | effect on the bladder regulation (in words): does not exhibit such a marked effect

CC[C@](O)(c1cccc(OC)c1)[C@H](C)CN(C)C.Cl [Compound 2, (+)-(2R,3R)-1-dimethylamino-3-(3-methoxyphenyl)-2-methylpentan-3-ol, hydrochloride]
BC Bladder Capacity (change compared to the baseline value) (0.1 mg/kg iv, effect maximum, mean of 3 micturition cycles): +7.8%** | BC Bladder Capacity (change compared to the baseline value) [2]: +33%** | BC Bladder Capacity (change compared to the baseline value) [1]: +20.6%** | effect on the bladder regulation (in words): very effective

CCC(O)(c1cccc(O)c1)C(C)CN(C)C.Cl (racemic) [Compound 7, (2RS,3RS)-3-(3-dimethylamino-1-ethyl-1-hydroxy-2-methylpropyl)-phenol, hydrochloride]
BC Bladder Capacity (change compared to the baseline value) [2]: +32%** | ICI Inter-Contraction Interval (change compared to the baseline value) [2]: +2%*

CC[C@](O)(c1cccc(OC)c1)[C@H](C)CN(C)C.Cl (racemic) [Compound 1, (2RS,3RS)-1-dimethylamino-3-(3-methoxyphenyl)-2-methylpentan-3-ol, hydrochloride]
BC Bladder Capacity (change compared to the baseline value) (1.0 mg/kg iv, effect maximum, mean of 3 micturition cycles): +31%**
